In article PMC9127186, “Molecular Basis Underlying Hepatobiliary and Renal Excretion of Phenolic Acids of Salvia miltiorrhiza Roots (Danshen)” (Frontiers in Pharmacology, 2022):

What was measured:
rat Mrp4 = biological target: T1, rat Mrp4 (Rattus norvegicus, UniProt F1M3J4); test: Vesicular transport assay, inside-out membrane vesicles expressing rat Mrp4; conditions: for TransportATP/TransportAMP ratio (net transport ratio): 10 min
T1 sequence (F1M3J4 1-1325): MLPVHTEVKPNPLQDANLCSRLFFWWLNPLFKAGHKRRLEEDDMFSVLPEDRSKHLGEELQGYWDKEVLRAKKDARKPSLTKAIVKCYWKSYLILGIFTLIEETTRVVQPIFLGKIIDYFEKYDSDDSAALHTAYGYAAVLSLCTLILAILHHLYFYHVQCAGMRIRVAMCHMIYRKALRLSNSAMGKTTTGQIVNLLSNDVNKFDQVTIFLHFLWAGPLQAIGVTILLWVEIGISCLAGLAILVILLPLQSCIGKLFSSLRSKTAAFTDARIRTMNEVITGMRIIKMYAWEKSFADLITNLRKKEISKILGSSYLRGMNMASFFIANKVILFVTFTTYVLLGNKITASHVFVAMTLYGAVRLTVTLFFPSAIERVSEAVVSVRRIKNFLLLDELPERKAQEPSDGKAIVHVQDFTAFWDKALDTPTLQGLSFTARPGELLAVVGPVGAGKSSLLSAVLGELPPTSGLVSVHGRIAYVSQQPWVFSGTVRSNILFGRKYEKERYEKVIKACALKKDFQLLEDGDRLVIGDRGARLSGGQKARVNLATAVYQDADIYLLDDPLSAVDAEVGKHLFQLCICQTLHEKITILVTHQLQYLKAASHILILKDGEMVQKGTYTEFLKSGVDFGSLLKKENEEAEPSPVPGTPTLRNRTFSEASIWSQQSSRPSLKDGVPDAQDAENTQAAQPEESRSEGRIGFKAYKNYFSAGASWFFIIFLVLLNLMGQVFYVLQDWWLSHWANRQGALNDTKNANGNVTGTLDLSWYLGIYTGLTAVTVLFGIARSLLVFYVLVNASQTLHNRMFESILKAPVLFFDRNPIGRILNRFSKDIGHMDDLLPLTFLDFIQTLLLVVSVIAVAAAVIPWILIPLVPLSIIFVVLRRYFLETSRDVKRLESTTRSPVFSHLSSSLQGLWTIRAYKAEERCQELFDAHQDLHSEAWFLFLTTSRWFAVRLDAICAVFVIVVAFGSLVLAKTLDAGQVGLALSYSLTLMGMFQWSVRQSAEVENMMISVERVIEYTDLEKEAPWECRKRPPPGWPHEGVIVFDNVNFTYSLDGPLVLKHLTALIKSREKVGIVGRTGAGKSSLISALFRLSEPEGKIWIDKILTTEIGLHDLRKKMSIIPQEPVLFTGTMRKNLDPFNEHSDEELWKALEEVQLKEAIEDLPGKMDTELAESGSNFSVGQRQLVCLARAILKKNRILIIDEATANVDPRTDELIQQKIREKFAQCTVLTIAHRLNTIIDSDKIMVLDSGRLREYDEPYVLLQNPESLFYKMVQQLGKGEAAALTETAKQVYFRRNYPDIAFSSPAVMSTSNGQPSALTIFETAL
Method: (§1) Inside-out membrane vesicles (5 mg protein/mL), prepared from insect cells expressing human multidrug resistance-associated protein (MRP) 2, MRP3, MRP4, breast cancer resistance protein (BCRP), bile salt export pump (BSEP), and multidrug resistance protein (MDR) one and rat Mrp2, Mrp4, Bcrp, and Bsep, and vesicles (5 mg protein/mL; prepared from the insect cells expressing no ABC transporter; serving as negative control) were obtained from Genomembrane (Kanazawa, Japan).
(§2) The test Danshen compounds at 100 µM final concentration were separately incubated with the membrane vesicles for 10 min. Buffer C (50 mM MOPS-tris, 70 mM KCl, 7.5 mM MgCl2, pH 7.0) was used for preincubation and incubation, while buffer D (40 mM MOPS-tris, 70 mM KCl, pH 7.0) was used for vesicle washing. The transport rate (pmol/mg protein/min) of the test Danshen compound was calculated using Equation (2): Transport=(CV×VV)/T/WV (2) where C V, V V, T, and W V represent concentration of the compound in vesicular lysates supernatant (μM), volume of the lysates (μL), incubation time (10 min), and amount of vesicle protein amount per well (0.05 mg), respectively. Differential transport of the test Danshen compound between ATP-containing vesicles and AMP-containing vesicles was defined as net transport ratio (TransportATP/TransportAMP ratio). […] All the incubation samples were analyzed by liquid chromatography/mass spectrometry.

human MRP2 = human MRP2 (Homo sapiens, UniProt Q92887); test: Vesicular transport assay, inside-out membrane vesicles expressing human MRP2; conditions: for TransportATP/TransportAMP ratio (net transport ratio): 10 min
Chain of human MRP2 (Q92887 whole entry): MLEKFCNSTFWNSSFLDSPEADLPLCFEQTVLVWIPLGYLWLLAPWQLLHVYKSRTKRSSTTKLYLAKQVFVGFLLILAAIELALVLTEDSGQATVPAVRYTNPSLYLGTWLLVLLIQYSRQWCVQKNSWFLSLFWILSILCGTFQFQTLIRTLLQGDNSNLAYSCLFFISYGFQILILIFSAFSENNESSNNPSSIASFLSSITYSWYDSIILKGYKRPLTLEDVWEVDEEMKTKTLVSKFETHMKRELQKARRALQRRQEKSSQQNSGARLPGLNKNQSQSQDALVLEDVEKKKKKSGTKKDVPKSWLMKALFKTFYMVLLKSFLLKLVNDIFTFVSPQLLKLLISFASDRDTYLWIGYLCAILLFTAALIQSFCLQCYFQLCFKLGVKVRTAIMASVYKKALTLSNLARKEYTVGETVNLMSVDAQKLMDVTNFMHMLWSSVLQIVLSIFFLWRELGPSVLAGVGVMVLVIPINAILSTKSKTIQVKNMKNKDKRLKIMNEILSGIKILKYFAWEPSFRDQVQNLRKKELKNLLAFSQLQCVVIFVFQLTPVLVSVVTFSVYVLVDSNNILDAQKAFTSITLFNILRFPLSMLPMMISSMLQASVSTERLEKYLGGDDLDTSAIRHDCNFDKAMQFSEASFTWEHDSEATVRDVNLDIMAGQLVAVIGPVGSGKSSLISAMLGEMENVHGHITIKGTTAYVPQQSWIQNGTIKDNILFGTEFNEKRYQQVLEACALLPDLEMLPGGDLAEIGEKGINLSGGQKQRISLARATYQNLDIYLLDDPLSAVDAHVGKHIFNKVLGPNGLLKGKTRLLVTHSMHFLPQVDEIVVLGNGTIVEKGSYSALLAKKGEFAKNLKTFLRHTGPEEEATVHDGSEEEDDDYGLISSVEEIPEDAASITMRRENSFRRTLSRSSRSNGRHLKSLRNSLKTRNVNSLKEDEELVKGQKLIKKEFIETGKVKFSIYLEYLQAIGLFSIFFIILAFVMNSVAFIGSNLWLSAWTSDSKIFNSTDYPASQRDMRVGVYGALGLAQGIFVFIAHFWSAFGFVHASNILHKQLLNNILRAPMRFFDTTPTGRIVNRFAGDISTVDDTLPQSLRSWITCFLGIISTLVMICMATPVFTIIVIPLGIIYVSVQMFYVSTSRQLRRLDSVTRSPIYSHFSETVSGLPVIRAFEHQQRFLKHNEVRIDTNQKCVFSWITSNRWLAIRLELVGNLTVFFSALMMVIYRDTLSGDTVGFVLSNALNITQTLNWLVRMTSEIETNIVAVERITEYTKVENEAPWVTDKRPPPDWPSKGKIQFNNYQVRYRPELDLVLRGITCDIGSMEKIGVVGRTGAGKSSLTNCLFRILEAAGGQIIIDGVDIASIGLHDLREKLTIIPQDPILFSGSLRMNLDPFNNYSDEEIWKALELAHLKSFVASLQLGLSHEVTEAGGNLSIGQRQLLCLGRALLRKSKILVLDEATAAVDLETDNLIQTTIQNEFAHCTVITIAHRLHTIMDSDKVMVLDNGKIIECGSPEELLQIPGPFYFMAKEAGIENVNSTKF
Method: as §1, §2

human BSEP = human BSEP (Homo sapiens, UniProt O95342); test: Vesicular transport assay, inside-out membrane vesicles expressing human BSEP; conditions: 10 min
Chain of human BSEP (O95342 whole entry): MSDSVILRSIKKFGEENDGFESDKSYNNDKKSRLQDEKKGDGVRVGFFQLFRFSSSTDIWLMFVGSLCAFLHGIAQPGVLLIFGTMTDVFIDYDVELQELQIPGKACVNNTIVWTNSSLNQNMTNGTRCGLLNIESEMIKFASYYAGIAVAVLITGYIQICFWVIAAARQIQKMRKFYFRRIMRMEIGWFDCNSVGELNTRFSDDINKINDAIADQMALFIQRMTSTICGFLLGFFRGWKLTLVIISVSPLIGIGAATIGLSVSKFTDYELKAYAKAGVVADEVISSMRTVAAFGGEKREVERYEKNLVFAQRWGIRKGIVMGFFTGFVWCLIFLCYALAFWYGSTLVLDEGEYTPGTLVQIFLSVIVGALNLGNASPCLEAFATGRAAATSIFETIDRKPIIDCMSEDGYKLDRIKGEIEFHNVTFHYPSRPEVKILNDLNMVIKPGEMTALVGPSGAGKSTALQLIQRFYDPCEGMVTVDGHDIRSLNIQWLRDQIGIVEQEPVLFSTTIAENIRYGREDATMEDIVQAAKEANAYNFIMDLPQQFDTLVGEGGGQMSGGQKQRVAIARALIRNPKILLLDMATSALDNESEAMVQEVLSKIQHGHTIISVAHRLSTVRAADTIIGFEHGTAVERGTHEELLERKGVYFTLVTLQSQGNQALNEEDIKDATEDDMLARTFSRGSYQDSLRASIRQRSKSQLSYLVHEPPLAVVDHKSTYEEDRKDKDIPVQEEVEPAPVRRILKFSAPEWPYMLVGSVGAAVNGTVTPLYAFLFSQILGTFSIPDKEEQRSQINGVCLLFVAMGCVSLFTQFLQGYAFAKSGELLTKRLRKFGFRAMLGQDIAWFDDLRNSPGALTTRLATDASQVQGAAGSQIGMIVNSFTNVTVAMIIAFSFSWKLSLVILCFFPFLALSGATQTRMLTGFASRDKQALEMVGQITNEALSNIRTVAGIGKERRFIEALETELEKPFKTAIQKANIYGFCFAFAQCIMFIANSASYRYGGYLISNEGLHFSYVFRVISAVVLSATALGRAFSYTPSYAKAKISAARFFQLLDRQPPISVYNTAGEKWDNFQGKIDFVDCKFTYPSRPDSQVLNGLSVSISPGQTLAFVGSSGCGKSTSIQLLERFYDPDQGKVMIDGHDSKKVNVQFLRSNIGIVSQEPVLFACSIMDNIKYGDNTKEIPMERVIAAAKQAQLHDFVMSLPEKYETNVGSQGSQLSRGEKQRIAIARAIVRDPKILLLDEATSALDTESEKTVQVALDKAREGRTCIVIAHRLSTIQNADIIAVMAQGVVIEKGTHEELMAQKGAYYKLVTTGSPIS
Method: as §1, §2

[1] = Danshen phenolic acid at 100 μM final concentration, rat Mrp4 vesicles
[2] = Danshen phenolic acid at 100 μM final concentration, human MRP2 vesicles
[3] = Danshen phenolic acid at 100 μM final concentration, human BSEP vesicles

| Molecule | TransportATP/TransportAMP ratio (net transport ratio) (rat Mrp4; [1]) | substrate of human MRP2 (human MRP2) | TransportATP/TransportAMP ratio (net transport ratio) (human MRP2; [2]) | TransportATP/TransportAMP ratio (net transport ratio) (human BSEP; [3]) | substrate of rat Mrp4 (rat Mrp4) | TransportATP/TransportAMP ratio (net transport ratio) (rat Mrp4; rat, 100 μM, pH 7) | TransportATP/TransportAMP ratio (net transport ratio) (human MRP2; human, 100 μM, pH 7) | TransportATP/TransportAMP ratio (net transport ratio) (human BSEP; human, 100 μM, pH 7) |
| --- | --- | --- | --- | --- | --- | --- | --- | --- |
| O=C(/C=C/c1ccc(O)c2c1[C@H](C(=O)O)[C@@H](c1ccc(O)c(O)c1)O2)O[C@H](Cc1ccc(O)c(O)c1)C(=O)O [Lithospermic acid, lithospermic acid] | 1.46 ± 0.01 | substrates | 5.02 ± 1.67 | 0.83 ± 0.20 | – | – | – | – |
| O=C(O)c1ccc(O)c(O)c1 [Protocatechuic acid, protocatechuic acid] | 1.17 ± 0.06 | – | 0.94 ± 0.31 | 0.99 ± 0.21 | – | – | – | – |
| O=C(/C=C/c1ccc(O)c(O)c1)O[C@H](Cc1ccc(O)c(O)c1)C(=O)O [Rosmarinic acid, rosmarinic acid] | – | – | – | – | substrates | 4.79 ± 0.38 | 1.13 ± 0.34 | 1.03 ± 0.09 |
| O=C(/C=C/c1ccc(O)c(O)c1/C=C/c1ccc(O)c(O)c1)O[C@H](Cc1ccc(O)c(O)c1)C(=O)O [Salvianolic acid A, salvianolic acid A] | – | – | – | – | – | 2.09 ± 0.25 | 1.42 ± 0.31 | 1.32 ± 0.26 |
| O=C(O)Cc1c(/C=C/C(=O)O[C@H](Cc2ccc(O)c(O)c2)C(=O)O)ccc(O)c1O [Salvianolic acid D, salvianolic acid D] | 11.1 ± 0.2 | – | 1.51 ± 0.73 | 1.19 ± 0.35 | substrates | – | – | – |
| salvianolic acid B | 2.15 ± 0.32 | substrates | 6.21 ± 1.32 | 1.43 ± 0.32 | – | – | – | – |
